In patent publication US20240398813A1, “PHARMACEUTICAL COMPOSITION FOR PREVENTING OR TREATING OVERACTIVE BLADDER” (GWANGJU INSTITUTE OF SCIENCE AND TECHNOLOGY, priority 2021, published 2024):

How the values were obtained:
[1] = tested on: Spontaneously hypertensive rats (SHR); test: In vivo model of OAB: urination in spontaneously hypertensive rats after oral administration; parameters: species or system rat
Procedure: Male rats with body weights of 300 to 350 g were deprived of food and water overnight before the experiment, and then were randomly divided into a drug administration group and a control group. All animals were provided free access to water for 2 hours, and then 10 mL/kg of vehicle solution [DMSO:PEG400:distilled water=5:40:55 (v/v)] as a test substance were orally administered. After oral administration of the test substance, the rats were placed in a metabolic cage and the number of urinations and urine volume were measured for 3 hours.
The in vivo treatment effects of the compounds for […] were investigated in spontaneously hypertensive rats (SHR) with OAB symptoms after oral administration. Wistar-Kyoto rats (WKY) were used as the healthy animal control, and urination frequency was increased more than 2.8 times in SHR compared to WKY. Compound 208 reduced the urination frequency in SHR (50 mg/kg) by 33%, which is quite close to the urination frequency of the normal group (see FIG. 18).

[2] = biological target: T1, hyperactive mutant BKCa channels (hSlo G803D/N806K) stably expressed in AD 293 cells (Homo sapiens, UniProt Q12791, G856D/N859K); test: Cell-based fluorescence assay (FluxOR Potassium Ion Channel Assay) of BKCa channel activation; conditions: fit of dose-response curve of initial rates; read-out: Apparent EC50 based on vi
T1 construct: expressed in transfected cells
Procedure: AD 293 cells, which are derivatives of the commonly used HEK 293 cell line and stably express hyperactive mutant BKCa channels (hSlo G803D/N806K) to sensitively detect the effect (Lee et al., 2013), were cultured in Dulbecco' modified Eagle medium (Hyclone, Logan, Utah, […]) supplemented with 10% fetal bovine serum, and selected with 1 mg/mL Geneticin (Gibco, Amarillo, TX, USA). 20,000 cells per well were seeded on a 96-well clear-bottom black plate (Corning, New York, NY, USA) coated with poly-D-lysine (Gibco). BKCa channel activity was measured using the cell-based fluorescence assay, FluxOR Potassium Ion Channel Assay (Thermo Fisher Scientific, Waltham, MA, USA). Experimental procedures were performed according to the manufacturer's instructions. The cells were treated with test compounds dissolved in assay buffer for 15 minutes. Fluorescence was measured using a FlexStation3 multimode microplate reader (Molecular Devices, Silicon Valley, CA, USA) and SoftMax Pro (Molecular Devices). Excitation and emission wavelengths were set to 485 nm and 528 nm, respectively. Fluorescence signals were acquired every 2 seconds for 120 seconds and normalized by the relative fluorescence unit (RFU). The efficacy of a channel activator was determined by analyzing changes (ΔRFU) in the RFU for 80 seconds after channel stimulation.
Activation effects of the synthesized compounds on BKCa channels were evaluated using cell-based fluorescence assay. NS11021 was used as the positive control. The effects were determined based on the initial rate (vi) of channel activation and the apparent EC50 value obtained from fitting data of the dose-response curve. Here, Vi means change values for 4 seconds at the start of channel opening (vi={RFU(t=24 s)−RFU(t=20 s)}/4 s). […]

T1 sequence (Q12791 whole entry G856D/N859K): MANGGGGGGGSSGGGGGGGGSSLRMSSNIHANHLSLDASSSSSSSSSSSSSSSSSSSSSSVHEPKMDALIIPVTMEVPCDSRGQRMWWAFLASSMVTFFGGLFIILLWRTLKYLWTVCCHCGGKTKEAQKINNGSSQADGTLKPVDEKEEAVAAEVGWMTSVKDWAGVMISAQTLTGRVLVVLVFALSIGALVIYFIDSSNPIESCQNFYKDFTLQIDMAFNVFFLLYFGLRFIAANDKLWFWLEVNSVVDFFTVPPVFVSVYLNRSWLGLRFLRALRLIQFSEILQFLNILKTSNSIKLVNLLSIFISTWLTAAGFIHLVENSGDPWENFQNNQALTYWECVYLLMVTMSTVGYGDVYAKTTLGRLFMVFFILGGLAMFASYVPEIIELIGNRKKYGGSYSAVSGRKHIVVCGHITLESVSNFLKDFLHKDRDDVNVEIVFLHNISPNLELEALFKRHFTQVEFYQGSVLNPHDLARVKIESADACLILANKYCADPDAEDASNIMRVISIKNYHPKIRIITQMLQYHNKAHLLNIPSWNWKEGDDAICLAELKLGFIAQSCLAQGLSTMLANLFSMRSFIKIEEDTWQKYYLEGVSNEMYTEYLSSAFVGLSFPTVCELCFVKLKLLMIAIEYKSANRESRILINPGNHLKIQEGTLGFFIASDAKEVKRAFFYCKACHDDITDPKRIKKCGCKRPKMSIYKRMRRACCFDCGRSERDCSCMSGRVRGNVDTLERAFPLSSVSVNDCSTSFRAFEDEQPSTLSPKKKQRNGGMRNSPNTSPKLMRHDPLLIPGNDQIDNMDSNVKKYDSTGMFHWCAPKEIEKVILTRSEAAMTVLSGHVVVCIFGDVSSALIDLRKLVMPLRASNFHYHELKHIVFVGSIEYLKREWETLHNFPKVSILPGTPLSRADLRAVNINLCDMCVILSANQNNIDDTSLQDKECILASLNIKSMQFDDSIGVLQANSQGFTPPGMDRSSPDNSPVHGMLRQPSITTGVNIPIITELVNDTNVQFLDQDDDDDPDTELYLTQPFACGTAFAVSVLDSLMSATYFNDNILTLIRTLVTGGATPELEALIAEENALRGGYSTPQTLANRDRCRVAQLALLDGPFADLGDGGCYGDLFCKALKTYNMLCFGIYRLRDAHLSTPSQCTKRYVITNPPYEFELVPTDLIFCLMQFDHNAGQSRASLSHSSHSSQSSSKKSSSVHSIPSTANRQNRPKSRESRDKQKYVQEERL

Row | EC50 [2] [nM] | SMILES | reduction of urination frequency ([1]; 50 mg/kg oral) [%] | number of urinations ([1]; 5 mg/kg oral, 3 hours, SHR vehicle 8.2)
1 | 2890 | O=C(Nc1cccc(C(F)(F)F)c1)c1sc(=S)n2c1[nH]c(=O)c1cc(Br)ccc12 [Compound 208, 7-bromo-5-oxo-1-thioxo-N-(3-(trifluoromethyl)phenyl)-4,5-dihydro-1H-thiazolo[3,4-a]quinazoline-3-carboxamide] | 33 | 
2 |  | O=C(O[C@H]1CN2CCC1CC2)N1CCc2ccccc2[C@@H]1c1ccccc1 [solifenacin succinate, reference compound] |  | 4.2
